Values joined by “and” are separate entries in the source; they are usually repeats but may differ in a detail not shown here. Equal entries are not always repeated. Where two headings read alike, the source gives them in different places. Marks after values point to notes of the source that are not given here.
What was measured:
[1] = cited from earlier work
[2] = test system: small intestine; conditions: cited from earlier work
[3] = ref Csanády et al. 2002; cited from earlier work
[4] = test system: liver; conditions: ref Kurebayashi et al. (2010), cited from earlier work
[5] = cited from earlier work; remark: listed apart in the source
[6] = determined experimentally, ref Doerge et al. (2011), cited from earlier work
[7] = test system: human breast-cancer cell lines; parameters: method as in Walsh et al. (2005); conditions: ref Walsh et al. (2005), read-out: EC50 for an increase of calcium ion concentration; cited from earlier work
[8] = PBPK model parametrization and calibration with biomonitoring data; parameters: species or system human; conditions: basic BPA model
Experimental: It consists of the compartments titled serum, liver, fat, skin, gonads, brain, “richly perfused tissue,” “slowly perfused tissue”, and two single-compartment submodules for BPA-g and BPA-s in serum (see Figure 2). In the compartment titled “richly perfused tissue,” compartments were lumped with a perfusion greater than 0.1mL/min/g tissue (heart, kidneys, small and large intestine, pancreas, spleen, and stomach), and in the compartment titled “slowly perfused tissue,” compartments were lumped with a perfusion smaller than 0.1mL/min/g tissue (muscle and skeleton) ([Edginton et al. 2006]; [ICRP 2002], see Table S1 for the aggregated parameters). […] Fixing the scaling error caused the aforementioned discrepancy, and we had to review and readjust the model parameters to the biomonitoring data.
In a first step to readjust and further develop the PBPK model, we collected all studies that investigated the metabolism parameters used in the model and gathered data from different studies that measured the same metabolism routes (see Table S2). […] For this purpose, we calculated the mean relative deviation (MRD) and average fold error (AFE) to assess precision and bias of the model predictions using Equations 1 and 2 ([Sheiner and Beal 1981]), as done previously ([Ito and Houston 2005]; [Vogt 2014]; [Yang et al. 2015]). […]

[9] = test system: liver; conditions: cited from earlier work
[10] = ref Schönfelder et al. (2002); cited from earlier work
[11] = in vivo; cited from earlier work
[12] = Margin of exposure (MOE = EC50/Cmax) back-of-the-envelope calculation; parameters: species or system human
[13] = cited from earlier work; remark: listed apart in the source
[14] = basic PBPK model, ref Yang et al. (2015)
[15] = EC50 (Kitamura et al. 2005)/highest Cmax of basic PBPK model (Table 9)

CC(C)(c1ccc(O)cc1)c1ccc(O)cc1 [BPA, bisphenol A]
Oral uptake from small intestine to liver ([1]; basic PBPK model, ref Kortejärvi et al. (2007)): 2.10^a 1/h/kg BW^−0.25 | EHR as glucuronide [1, 14]: 0.20^f 1/h/kg BW^−0.25 | EHR unconjugated [1, 14]: 0.20^f 1/h/kg BW^−0.25 | Fraction of glucuronide in liver taken up directly into serum (no EHR) [1, 14]: 0.9^f | Urinary excretion glucuronide [1, 14]: 0.35^f 1/h/kg BW^0.75 | Urinary excretion ([1]; unconjugated, basic PBPK model, ref Yang et al. (2015)): 0.060^f 1/h/kg BW^0.75 | EHR share ([1]; used in BPA PBPK model, ref Yang et al. (2015)): 10% | Km ([2]; read-out: Glucuronidation in enterocytes / intestinal glucuronidation Km, used in basic model, ref Trdan Lušin et al. (2012)): 58.4 µM | Km ([2]; read-out: Glucuronidation in enterocytes Km range, ref Trdan Lušin et al. (2012), Mazur et al. (2010)): 58.4 to 80.1 µM | Km ([2]; read-out: Intestinal glucuronidation Km ±SD, ref Mazur et al. (2010)): 80.1 µM | Intestinal glucuronidation vmax ±SD ([2]; ref Mazur et al. (2010)): 29.2 ± 7.2 nmol/h/mg microsomal protein | Glucuronidation in enterocytes vmax range ([2]; ref Trdan Lušin et al. (2012), Mazur et al. (2010)): 125–361^j nmol/h/g liver | Glucuronidation in enterocytes vmax - used in basic model ([2]; ref Trdan Lušin et al. (2012)): 361^i nmol/h/g bw | Intestinal glucuronidation vmax ±SD ([2]; ref Trdan Lušin et al. (2012)): 84.0 ± 6.0 nmol/h/mg microsomal protein | fu (unbound fraction) [3]: 0.06 | Km ([4]; read-out: Hepatic sulfation Km): 10.1 µM | Hepatic sulfation vmax [4]: 149^n nmol/h/g liver | logPow ([5]; mean, ref Bayer 1996, Korenman 1973): 3.36 | pKa ([5]; ref Bautista-Toledo et al. 2005): 10.4 and ~10.4 | PTS richly perfused tissue/serum ([6]; value for brain used): 2.8 | PTS slowly perfused tissue/serum ([6]; value for muscle used): 2.7 | EC50 [7]: 0.1 nM | vmax of hepatic sulfation, times lower than that of hepatic glucuronidation [8]: about 60 times | Hepatic glucuronidation vmax ±SD ([9]; arithmetic mean of female and male kinetics, ref Elsby et al. (2001)): 333 ± 21 nmol/h/mg microsomal protein | Hepatic glucuronidation vmax ±SD ([9]; arithmetic mean of female and male kinetics, ref Kuester and Sipes (2007)): 85.2 ± 31.4 nmol/h/mg microsomal protein | Hepatic glucuronidation vmax ±SD ([9]; arithmetic mean of female and male kinetics, ref Mazur et al. (2010)): 190 ± 16.9 nmol/h/mg microsomal protein | Hepatic glucuronidation vmax range ([9]; range of published values, ref Coughlin et al. (2012), Kurebayashi et al. (2010), Trdan Lušin et al. (2012), Elsby et al. (2001), Kuester and Sipes (2007), Mazur et al. (2010), Street et al. (2017)): 1,270–16,300^c nmol/h/g liver | Km ([9]; read-out: Hepatic glucuronidation Km ±SD, arithmetic mean of female and male kinetics, ref Elsby et al. (2001)): 71.9 µM | Km ([9]; read-out: Hepatic glucuronidation Km ±SD, arithmetic mean of female and male kinetics, ref Kuester and Sipes (2007)): 8.5 µM | Km ([9]; read-out: Hepatic glucuronidation Km ±SD, arithmetic mean of female and male kinetics, ref Mazur et al. (2010)): 4.25 µM | Km ([9]; read-out: Hepatic glucuronidation Km ±SD, ref Street et al. (2017)): 23 µM | Km ([9]; read-out: Hepatic glucuronidation Km ±SD, ref Trdan Lušin et al. (2012)): 8.9 µM | Km ([9]; read-out: Hepatic glucuronidation Km, n=1, ref Kurebayashi et al. (2010)): 5.3 µM | Km ([9]; read-out: Hepatic glucuronidation Km, used in basic model, ref Coughlin et al. (2012)): 45.8 µM | Hepatic glucuronidation vmax - used in basic model ([9]; ref Coughlin et al. (2012)): 9,040^a nmol/h/g liver | Hepatic glucuronidation vmax ±SD ([9]; ref Coughlin et al. (2012)): 283 ± 18 nmol/h/mg microsomal protein | Hepatic glucuronidation vmax ([9]; ref Kurebayashi et al. (2010)): 39.8 nmol/h/mg microsomal protein | Hepatic glucuronidation vmax ±SD ([9]; ref Street et al. (2017)): 270 ± 60 nmol/h/mg microsomal protein | Hepatic glucuronidation vmax ±SD ([9]; ref Trdan Lušin et al. (2012)): 510 ± 18 nmol/h/mg microsomal protein | fetal plasma concentration, times higher than corresponding maternal plasma [10]: up to 7 times | AUC, mean (range), measured [11]: 15.5 (0.986–23.2) nM*h for 1.5 h | Cmax [11]: 16.5 nM | MOE in gonads [12, 15]: 4,670 | MOE in serum [12, 15]: 12,000 | MOE in serum of females ([12]; EC50 of Walsh et al. (2005), Cmax P95/P95): 1.25 | MOE in fetal serum ([12]; EC50 of Walsh et al. (2005), worst-case accumulation in the fetus): 0.179 | dermal absorption fraction ([13]; dissolved in ethanol, used for PCPs, ref Biedermann et al. 2010): 60% | reported dermal absorption ([13]; range over several studies, different study designs and solvents): 9.3% to 60
